According to patent publication US20190274975A1, “NANOPARTICLES FOR STIMULATING ELASTOGENESIS” (The Cleveland Clinic Foundation, priority 2013, published 2019):

What was measured:
[1] = equivalent to standard oral doses; mice and human patients; Ding et al. 2005; cited from earlier work
[2] = test system: aneurysmal RASMC cultures; test: Exogenous DOX on aneurysmal RASMC cultures (previous studies by the inventors); type: cell-based, rat

For `C[C@H]1c2cccc(O)c2C(=O)C2=C(O)[C@]3(O)C(=O)C(C(N)=O)=C(O)[C@@H](N(C)C)[C@@H]3[C@@H](O)[C@@H]21` [DOX, doxycycline], the “DOX concentration measured within AAA tissues” value [1] is listed as about 50 ng/mL, the “exogenously delivered dose observed to inhibit proliferation and elastic matrix synthesis by EaRASMCs” value ([2]; observed by the inventors) is listed as 5.0 µg/mL and the “exogenous DOX dosage that limited the viability of aneurysmal RASMC cultures” value ([2]; previous studies by the inventors) is listed as 5.0 µg/mL.
